Patent publication US20230087118A1, “IMIDAZO[1,2-a][sequence] DERIVATIVES AND THEIR USE IN THE TREATMENT OF DISEASE” (priority 2019, published 2023)

target: T1, IRAK4 (Homo sapiens, UniProt Q9NWZ3); assay: 2-hour 10 μM ATP Biochemical Assay (MesoScale Detection format; IRAK4 phosphorylation of biotin labeled IRAK1 activation loop peptide); conditions: 0.1 nM IRAK4
T1 sequence (Q9NWZ3 1-460): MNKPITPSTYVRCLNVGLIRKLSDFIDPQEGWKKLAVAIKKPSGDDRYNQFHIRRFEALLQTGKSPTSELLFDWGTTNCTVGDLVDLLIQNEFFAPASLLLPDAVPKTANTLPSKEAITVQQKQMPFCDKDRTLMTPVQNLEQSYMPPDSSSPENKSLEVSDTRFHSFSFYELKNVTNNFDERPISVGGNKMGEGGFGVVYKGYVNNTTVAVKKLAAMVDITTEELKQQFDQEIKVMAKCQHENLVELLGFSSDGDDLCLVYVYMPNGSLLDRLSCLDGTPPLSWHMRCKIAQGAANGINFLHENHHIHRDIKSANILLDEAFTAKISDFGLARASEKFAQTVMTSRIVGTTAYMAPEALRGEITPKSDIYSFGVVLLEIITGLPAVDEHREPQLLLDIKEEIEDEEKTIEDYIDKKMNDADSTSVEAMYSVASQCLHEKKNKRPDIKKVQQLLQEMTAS
Procedure: Compounds of the invention were assessed for their ability to inhibit IRAK4 activity. The inhibitory properties of the compounds of the invention described herein can be evidenced by testing in any one of the following assays.
The 2-hour 10 μM ATP Biochemical Assay employs a MesoScale Detection (MSD) format. The kinase reaction is based on the IRAK4 phosphorylation of a biotin labeled peptide (IRAK1 activation loop sequence 360-389).
The kinase reaction in 30 μl is carried out in wells of a 384 well polypropylene assay plate, with 0.1 nM IRAK4, 1.6 μM of biotinylated peptide substrate and 10 μM ATP in 50 mM Hepes, pH 7.5, 60 mM NaCl, 5 mM MgCl2, 0.25 mM MnCl2, 2 mM DTT, 0.01% BSA, and 1% DMSO (from compound DMSO stocks), for 2 hour at room temperature. The activity is quenched with 11 μl of 70 mM EDTA, pH 8.
To detect the phosphorylated biotinylated peptide substrate, 30 μl of the quenched reaction mixture is added to equivalent wells of a 384 well streptavidin coated MesoScale plate (Meso Scale Discovery #L21SA-1). After a 1 hour incubation of the plate for 1 hour at room temperature with gentle mixing, the plate wells are washed 3 times with 50 mM Tris, pH 7.5, 150 mM NaCl, 0.02% Tween-20.
A 25 μl volume of 1:500 anti-P-Threonine Rabbit polyclonal Antibody plus 1:500 Goat-anti-Rabbit Sulfo Tag Antibody (Meso Scale Discovery R32AB-1) in 50 mM Tris, pH 7.5, 150 mM NaCl, 0.02% Tween-20 plus 2% BSA is then added to each well. After a 1-hour incubation of the plate for 1 hour at room temperature with gentle mixing, the plate wells are washed, 3 times with 50 mM Tris, pH 7.5, 150 mM NaCl, 0.02% Tween-20. A 40 μl volume of 2× MSD Read Buffer (Meso Scale Discovery R92TC-1) is added to each well, and the plate is read immediately in an MSD Plate Reader (Meso Scale Discovery).

`COc1cc(C(=O)Nc2cccc(C(F)(F)F)n2)cn2cc(CC3CCOC3)nc12` (stereo not shown) [Example 72] was tested. Which IC50 did it give?
Its IC50 is 8 nM.

With `COc1cc2nc(C3CCOCC3)cn2cc1C(=O)N[C@@H]1C[C@H]1C1CCC1` (racemic) [Example 154] as the compound, how does the IC50 read?
The IC50 was 412 nM.

For `COc1cc2nc(C3CCOCC3)cn2cc1C(=O)NC1CCCC2(CC2)C1` (stereo not shown) [Example 126], which IC50 is on record?
Its IC50 is 660 nM.

How did the IC50 turn out when `COc1cc2nc(C3CCOCC3)cn2cc1C(=O)Nc1ccc(F)c(C(F)F)c1` [Example 159] was run?
The IC50 was 20 nM.

How did the IC50 turn out when `COc1cc2nc(C3CCOCC3)cn2cc1C(=O)Nc1cccc2c1CCOC2` [Example 180] was run?
Its IC50 is 19 nM.

How did the IC50 turn out when `COc1cccc(NC(=O)c2cn3cc(C45CC(C(F)F)(C4)C5)nc3cc2OC)n1` [Example 20] was run?
Its IC50 is 3 nM.

For `CCc1ncc(F)cc1NC(=O)c1cn2cc(C3CCOCC3)nc2cc1OC` [Example 128], which IC50 is on record?
The IC50 was 67 nM.

Which IC50 does the source give for `COc1cc2nc(C3CCOCC3)cn2cc1C(=O)Nc1cccnc1C` [Example 131] here?
Its IC50 is 25 nM.

`COc1cc2nc(C3CCOCC3)cn2cc1C(=O)Nc1cnsc1` [Example 138] was tested. Which IC50 did it give?
Its IC50 is 65 nM.

How did the IC50 turn out when `COc1cc2nc(C3CCOCC3)cn2cc1C(=O)NC1C2CCOC2C12CCC2` (stereo not shown) [Example 124] was run?
Its IC50 is 122 nM.

For `COc1cc2nc(C3CCOCC3)cn2cc1C(=O)Nc1cc(Cl)cc(Cl)c1` [Example 133], which IC50 is on record?
Its IC50 is 255 nM.

How did the IC50 turn out when `COc1cc2nc(C3CCOC3)cn2cc1C(=O)Nc1cccc(C(F)(F)F)n1` (stereo not shown) [Example 35] was run?
The IC50 was 12 nM.

Which IC50 does the source give for `COc1cc2nc(CC(C)C#N)cn2cc1C(=O)Nc1cccc(C(F)(F)F)n1` (stereo not shown) [Example 42] here?
The IC50 was 31 nM.

Which IC50 does the source give for `COc1cc2nc(C3CCOCC3)cn2cc1C(=O)NC1CCCC(C)C1C` (stereo not shown) [Example 175] here?
Its IC50 is 744 nM.

`COc1cccc(NC(=O)c2cn3cc(C4CC45CCOC5)nc3cc2OC)n1` (stereo not shown) [Example 16] was tested. Which IC50 did it give?
The IC50 was 8 nM.

With `CCOc1cc2nc(CCCOC)cn2cc1C(=O)Nc1cccc(C(F)F)n1` [Example 85] as the compound, how does the IC50 read?
Its IC50 is 1 nM.

`COc1cc2nc(C3CCOCC3)cn2cc1C(=O)NC1CC(OC)c2ccccc21` (stereo not shown) [Example 136] was tested. Which IC50 did it give?
Its IC50 is 944 nM.

Which IC50 does the source give for `COc1cc2nc(C3CCOCC3)cn2cc1C(=O)N[C@@H]1CCC[C@H](C2CC2)C1` (relative stereo) [Example 177] here?
Its IC50 is 861 nM.

same assay, conditions: read-out: IRAK4 Biochemical Assay (10 μM ATP, 2 h) IC50, 0.1 nM IRAK4

With `COc1cccc(NC(=O)c2cn3cc(C[C@@H]4CCOC4)nc3cc2OC)n1` [Example 51, (R)-7-methoxy-N-(6-methoxypyridin-2-yl)-2-((tetrahydrofuran-3-yl)methyl)imidazo[1,2-a]pyridine-6-carboxamide] as the compound, how does the IC50 read?
Its IC50 is 3 nM.

For `COc1cccc(NC(=O)c2cn3cc(C[C@H]4CCOC4)nc3cc2OC)n1` [Example 50, (S)-7-methoxy-N-(6-methoxypyridin-2-yl)-2-((tetrahydrofuran-3-yl)methyl)imidazo[1,2-a]pyridine-6-carboxamide], which IC50 is on record?
The IC50 was 3 nM.

target: T1, IRAK4; assay: biochemical; conditions: not given

Which IC50 does the source give for `CC(C)Oc1nc2nc([C@@]34CC[C@@](C)(C3)OC4)cn2cc1C(=O)Nc1cnn2cccnc12` (single isomer, unassigned) [Example 612] here?
The IC50 was 0.0004 µM.

How did the IC50 turn out when `CC12CC(c3cn4cc(C(=O)Nc5cccn(C(F)F)c5=O)c(OCCOC(F)F)cc4n3)(CO1)C2` [Example 446, 7-(2-(Difluoromethoxy)ethoxy)-N-(1-(difluoromethyl)-2-oxo-1,2-dihydropyridin-3-yl)-2-(1-methyl-2-oxabicyclo[2.1.1]hexan-4-yl)imidazo[1,2-a]pyridine-6-carboxamide] was run?
The IC50 was 0.0046 µM.

Which IC50 does the source give for `CC(C)Oc1cc2nc([C@@]34CC[C@@H](C3)OC4)cn2cc1C(=O)Nc1ccn(C)n1` (single isomer, unassigned) [Example 580] here?
The IC50 was 0.0017 µM.

How did the IC50 turn out when `Cn1ccc(NC(=O)c2cn3cc(C45CCC(C)(CC4)OC5)nc3cc2OC2CCC2)n1` [Example 570, 7-Cyclobutoxy-N-(1-methyl-1H-pyrazol-3-yl)-2-(1-methyl-2-oxabicyclo[2.2.2]octan-4-yl)imidazo[1,2-a]pyridine-6-carboxamide] was run?
The IC50 was 0.0004 µM.

same assay, conditions: IRAK4 Biochemical Assay (1 mM ATP, 2 h) IC50 (μM), 1 mM ATP, 2 h, 100 pM IRAK4

How did the IC50 turn out when `CC(C)Oc1cc2nc(C34CCC(C)(C3)OC4)cn2cc1C(=O)Nc1ccn(C(F)F)n1` (stereo not shown) [Example 504, N-(1-(difluoromethyl)-1H-pyrazol-3-yl)-7-isopropoxy-2-(1-methyl-2-oxabicyclo[2.2.1]heptan-4-yl)imidazo[1,2-a]pyridine-6-carboxamide] was run?
Its IC50 is 0.0018 µM.
